From US20120129842A1, “BISTHIAZOLE INHIBITORS OF PRO-MATRIX METALLOPROTEINASE ACTIVATION” (priority 2010, published 2012)

Key:
SCW-induced arthritis = experiment: Efficacy in rats with SCW-induced arthritis (ankle thickness, clinical scores); format: in vivo, rat; settings: 5, 20, 50 mg/kg BID oral
Source text: A polyarthritis can be induced in female Lewis rats following i.p. administration of streptococcal cell wall (SCW) […] (PG-PS) (J Exp Med 1977; 146:1585-1602). The model has an acute phase (days 3-7) that is complement and neutrophil-dependent and that resolves. A chronic erosive phase begins at about day ten and is dependent on the development of specific T cell immunity to the PG-GS, which resists digestion and remains present in synovial macrophages for months. Like rheumatoid arthritis, SCW-induced arthritis is reduced by TNF inhibitors, and the dependence of SCW-induced arthritis on macrophages (Rheumatology; 2001; 40:978-987) and the strong association of rheumatoid arthritis severity with synovial-tissue macrophage counts (Ann Rheum Dis; 2005; 64:834-838) makes SCW-arthritis an attractive model for testing potential therapeutic agents. SCW PG-PS 10S (Beckton Dickinson Cat#210866) suspended in saline was vortexed for 30 seconds and sonicated for 3 min with a probe type sonicator prior to injection. […]
To induce arthritis, Female Lewis (LEW/N) rats, 5-6 weeks of age (80-100 g) were injected (i.p.) with SCW PG-PS as described above. […] Each ankle was measured 3 times and averaged, and treatment groups were randomized based on ankle thickness (Table 6). […]

[1] = molecular target: T1, MMP9 mediated gelatinase activity (Rattus norvegicus, UniProt P50282); experiment: Liver in situ zymography of SCW-induced rats dosed with compound; format: in vivo; settings: for Intensity (RLU × 10^6) Rat 1 / Intensity (RLU × 10^6) Rat 2 / Intensity (RLU × 10^6) Rat 3 / Intensity (RLU × 10^6) Mean: Day 25-28, liver; for Intensity (RLU × 10^6) Mean: n=3
T1 construct: from tissue; host or cells: liver cryosections of female Lewis rats
T1 sequence (P50282 108-708): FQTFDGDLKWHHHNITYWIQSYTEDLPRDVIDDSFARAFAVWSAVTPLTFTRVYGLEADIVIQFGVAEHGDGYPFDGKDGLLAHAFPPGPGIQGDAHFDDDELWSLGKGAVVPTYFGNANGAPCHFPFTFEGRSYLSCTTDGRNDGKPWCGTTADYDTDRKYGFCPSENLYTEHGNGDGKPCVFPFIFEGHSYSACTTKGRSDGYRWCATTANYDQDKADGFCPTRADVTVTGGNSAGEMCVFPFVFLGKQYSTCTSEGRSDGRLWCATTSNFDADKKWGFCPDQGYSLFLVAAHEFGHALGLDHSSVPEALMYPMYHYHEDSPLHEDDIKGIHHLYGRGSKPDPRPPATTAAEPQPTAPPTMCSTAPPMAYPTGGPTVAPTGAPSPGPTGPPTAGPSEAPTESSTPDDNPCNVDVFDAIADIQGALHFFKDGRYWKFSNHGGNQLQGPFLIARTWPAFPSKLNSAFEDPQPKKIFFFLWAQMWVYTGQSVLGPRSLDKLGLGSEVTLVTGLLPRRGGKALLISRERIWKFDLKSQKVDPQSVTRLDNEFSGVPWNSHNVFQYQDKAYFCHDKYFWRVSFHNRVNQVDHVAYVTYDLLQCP
Source text: In situ zymography provides an alternative approach to assess active MMP9 in tissues (Frederiks). Tissue sections are overlain with fluorescene-conjugated gelatin wherein the conjugation is sufficiently dense to cause the fluorescene to be dye-quenched (DQ). Proteolytic degradation of the DQ-gelatin releases the fluorescene from the quenching effect giving rise to bright green fluorescence at the site of degradation. Because in situ zymography requires the use of frozen sections, calcified tissues are problematic. However, an additional feature of the SCW arthritis model is the development of hepatic granulomatous disease (J Immunol; 1986; 137:2199-2209), and MMP9 reportedly plays a role in macrophage recruitment in the granulomas response to mycobacteria (Infect Immun; 2006; 74:6135-6144). Consequently, granulomatous livers from SCW-treated rats were assessed for active MMP9 by in situ zymography.
As described above, Female Lewis (LEW/N) rats, 5-6 weeks of age (80-100 g) were injected (i.p.) with saline or SCW PG-PS. On day 28, when the granulomatous response was well established, animals were sacrificed and livers were frozen in OCT cryo-sectioning medium and 10 μm sections were cut on a Cryome HM 500 M cryotome and mounted on glass microscope slides. Sections were air dried briefly. MMP9 was confirmed as the source of the gelatinase activity in the liver by treating liver sections with monoclonal antibodies directed against the active site of the two major gelatinases MMP9 and MMP2. Liver sections overlain with 50 μL of 100 μg/mL neutralizing mouse monoclonal antibodies directed against MMP9 (Calbiochem, clone 6-6B), or MMP2 (Millipore, clone CA-4001), or with PBS for 1 hr at room temperature. Tissues were rinsed once with PBS, blotted, and briefly air dried and then overlain with DQ-gelatin (Invitrogen) dissolved to 1 mg/mL in deionized water and then diluted 1:10 in 1% wt/vol low gelling point agarose type VII (Sigma) in PBS. The sections were covered with coverslips, incubated in the dark at room temperature for 20 min, and imaged on an Olympus IX80 inverted microscope fitted with fluorescence optics, using SlideBook™ imaging software (Intelligent Imaging Innovations, Inc., Philadelphia, Pa.; version 5.0). Fluorescence intensity was determined (Table 8). When compared to a saline-treated rat, gelatinase activity was abundantly expressed in granulomatous liver sections obtained from a rat with SCW arthritis.
Next, liver in situ zymography was used to assess the relative presence of active MMP9 in rats dosed with vehicle vs. Example 64. Female Lewis (LEW/N) rats, 5-6 weeks of age (80-100 g) were injected (i.p.) with saline or SCW PG-PS. Commencing on day 25, randomized groups of rats (n=3 rats/group) received vehicle or 20 or 50 mg/kg Example 64 BID by oral gavage. Vehicle consisted of an aqueous mixture containing 2% (v:v) N-methylpyrrolidone, 5% (v:v) glycerine, and 20% (w:v) captisol. Treatment continued daily through the morning of day 28. Four hrs after the AM dose on day 28, rats were sacrificed and livers assessed for active MMP9 by in situ zymography (Table 9). Gelatinase activity was increased markedly in SCW-induced rats, but activity was reduced by approximately 80% in animals treated with 50 mg/kg Example 64.

## Cc1nc(C)c(-c2csc(Nc3cc(S(N)(=O)=O)ccc3OC(C)C)n2)s1 [Example 64, 3-(2′,4′-Dimethyl-[4,5′]bithiazolyl-2-ylamino)-4-isopropoxy-benzenesulfonamide.HBr]
SCW-induced arthritis; Day 18-26
  ankle thickness measurements, effect of treatment: dose-dependent decrease in ankle thickness measurements
SCW-induced arthritis; significant effects emerging at 20 mg/kg
  clinical score measurements, effect of treatment: dose dependent decrease in clinical score measurements
[1]; 20 mg/kg BID oral
  Intensity (RLU × 10^6) Rat 1: 43.0 RLU × 10^6
  Intensity (RLU × 10^6) Rat 2: 69.0 RLU × 10^6
  Intensity (RLU × 10^6) Rat 3: 53.7 RLU × 10^6
  Intensity (RLU × 10^6) Mean: 55.2 RLU × 10^6
[1]; 50 mg/kg BID oral, Day 25-28
  reduction of gelatinase activity in liver: approximately 80%
[1]; 50 mg/kg BID oral
  Intensity (RLU × 10^6) Rat 1: 3.2 RLU × 10^6
  Intensity (RLU × 10^6) Rat 2: 25.6 RLU × 10^6
  Intensity (RLU × 10^6) Rat 3: 4.5 RLU × 10^6
  Intensity (RLU × 10^6) Mean: 11.1 RLU × 10^6
